The results in this text go back to ChEMBL document CHEMBL1201862, “PubChem BioAssay data set” (2004).

Common to all, as to test: DTP human tumour cell line panel, 48 h
For assay [1], the system named is CAKI-1.
In assay [2] the test system is IGROV-1.
Assay [3] has as its system UO-31.
For assay [4], the system named is CCRF-CEM.
In assay [5] the test system is OVCAR-8.
Assay [6] relates to NCI/ADR-RES.
For assay [7], the system named is OVCAR-4.
The test system of assay [8] is EKVX.
For assay [9], the system named is Hs-578T.
The subject of assay [10] is SNB-19.
The subject of assay [11] is DU-145.
The subject of assay [12] is MOLT-4.
Assay [13] concerns BT-549.
Assay [14] deals with TK-10.
Assay [15] deals with HT-29.
The test system of assay [16] is 786-0.
The subject of assay [17] is SF-539.
Assay [18] relates to HCT-15.
Assay [19] deals with NCI-H460.

What is called GI50 is the concentration at which growth is held to half of that of the control.

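Protocol summary: plate cells (96-well), add compound at 5 concentrations, incubate 48 h, interpolate endpoints linearly. GI50 = concentration required for 50% inhibition of growth.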 Active and inactive are the calls of the source. No stated cut-off is given here; in the data, active = GI50 up to about 1.1 µM and inactive = higher. Where only a bound is given, the exact number is not on record here.

Regarding `Cc1c(C)c(C)c(CSC(=N)N)c(C)c1C`, the GI50 in assay [1] is 11.5 µM (inactive); in assay [2], 33.6 µM (inactive); in assay [3] it was 6.52 µM (inactive); in assay [4], 15.5 µM (inactive); in assay [5], 24.1 µM (inactive); in [6], 15.2 µM (inactive). The GI50 in assay [7] is 15.6 µM (inactive); in assay [8] it was 14.8 µM (inactive); in assay [9], 15.6 µM (inactive); in [10], 14.6 µM (inactive); in [11] it was 16.9 µM (inactive); in assay [12], 15.5 µM (inactive). The GI50 in assay [13] is 16.4 µM (inactive); in [14] it was 14.8 µM (inactive); in [15], 12.5 µM (inactive); in assay [16] it was 15.9 µM (inactive); in assay [17], 15.7 µM (inactive); in assay [18], 16.2 µM. Besides, the GI50 in assay [19] is 13.2 µM (inactive).
As to `CCCCc1ccc(Nc2nc(N)c3[nH]cnc3n2)cc1`, the GI50 in [1] was 15.5 µM (inactive); in assay [2], 12.1 µM (inactive); in assay [3], 12.7 µM (inactive); in assay [4], 21.7 µM (inactive); in assay [5], 15.8 µM (inactive); in assay [6] it was 15.2 µM (inactive). In addition, the GI50 in [7] was 24.5 µM (inactive); in assay [8] it was 19.6 µM (inactive); in assay [9], 17.7 µM (inactive); in assay [10], 17.8 µM (inactive); in [11], 19.2 µM (inactive); in assay [12], 0.925 µM (active). Also, the GI50 was 21.5 µM (inactive) in assay [13]; 16.4 µM (inactive) in [14]; 13.8 µM (inactive) in [15]; 17.2 µM (inactive) in assay [16]; 18.8 µM (inactive) in assay [17]; 25 µM in assay [18]. Besides, the GI50 in [19] is 22.9 µM (inactive).
Turning to `C[C@]12C[C@H](c3ccccc3)Nc3ccccc3N1C(c1ccccc1)=NO2`, the GI50 in [1] is 64.3 µM (inactive); in assay [2], > 100 µM (inactive); in assay [3], 41.4 µM (inactive); in [4], 67.6 µM (inactive); in assay [5] it was 85.7 µM (inactive); in [6], 41.1 µM (inactive). Further, the GI50 in [7] is 52 µM (inactive); in [8], 21 µM (inactive); in assay [9] it was > 100 µM (inactive); in assay [10], > 100 µM (inactive); in assay [11], > 100 µM (inactive); in assay [12], 24.5 µM (inactive). Also, the GI50 in assay [13] was 30.5 µM (inactive); in [14], > 100 µM (inactive); in assay [15] it was 55.2 µM (inactive); in [16], 60.1 µM (inactive); in assay [17], > 100 µM (inactive); in assay [18], 67.9 µM. The GI50 in assay [19] was 49.7 µM (inactive).
In the case of `CCOC(=O)c1[nH]c2cccc3c2c1CC[C@H](NC(=O)C(F)(F)F)C3=O`, the GI50 in assay [1] is 13.9 µM (inactive); in assay [2] it was 75.5 µM (inactive); in assay [3], > 100 µM (inactive); in assay [4], > 100 µM (inactive); in assay [5], 19.7 µM (inactive); in [6] it was 54 µM (inactive). In addition, the GI50 in assay [7] is 24.7 µM (inactive); in assay [8], < 0.01 µM (active); in assay [9] it was 19.5 µM (inactive); in assay [10], 15.8 µM (inactive); in [11], > 100 µM (inactive); in [12], > 100 µM (inactive). In addition, the GI50 was 40.4 µM (inactive) in [13]; 46 µM (inactive) in assay [14]; > 100 µM (inactive) in [15]; 31.2 µM (inactive) in assay [16]; 38.1 µM (inactive) in [17]; over 100 µM in assay [18]. Moreover, the GI50 in [19] is 53.6 µM (inactive).
As to `COc1cc2c(cc1O)C1CC(CC3CCCCN31)OC(=O)/C=C\c1ccc(O)c-2c1` (configuration not stated), the GI50 in [1] was 23.1 µM (inactive); in assay [2], 24.7 µM (inactive); in [3] it was 25.9 µM (inactive); in assay [4], 30.1 µM (inactive); in assay [5], 21.6 µM (inactive); in [6], 23.8 µM (inactive). In addition, the GI50 was 27.3 µM (inactive) in assay [7]; 41.6 µM (inactive) in assay [8]; 18.3 µM (inactive) in assay [9]; 63 µM (inactive) in [10]; 27.7 µM (inactive) in [11]; 20 µM (inactive) in assay [12]. Moreover, the GI50 in assay [13] is 27.9 µM (inactive); in assay [14], 26.4 µM (inactive); in assay [15] it was 20.5 µM (inactive); in assay [16], 32.4 µM (inactive); in [17], 15.8 µM (inactive); in [18], 36.9 µM. In assay [19], the GI50 was 37.1 µM (inactive).
Regarding `Cc1cc(C)cc(Nc2nnc3n2S(=O)(=O)c2cc(C)c(Cl)cc2S3)c1`, the GI50 is 7.11 µM (inactive) in assay [1]; 5.43 µM (inactive) in [2]; 7.14 µM (inactive) in [3]; 0.313 µM (active) in assay [4]; 3.97 µM (inactive) in [5]; 2.99 µM (inactive) in assay [6]. Also, the GI50 in assay [7] was 8.69 µM (inactive); in assay [8], 11.2 µM (inactive); in [9] it was 2.94 µM (inactive); in assay [10] it was 4.3 µM (inactive); in assay [11], 10.3 µM (inactive); in assay [12], 3.08 µM (inactive). In addition, the GI50 in assay [13] is 4.22 µM (inactive); in assay [14], 10.7 µM (inactive); in [15], 7.26 µM (inactive); in assay [16] it was 4.94 µM (inactive); in assay [17], 2.89 µM (inactive); in assay [18], 4.37 µM. For the same compound, the GI50 in [19] is 4.29 µM (inactive).
For the compound `CC(=O)Nc1sc(Br)cc1S(=O)(=O)c1ccc(Cl)cc1`, the GI50 in assay [1] was > 100 µM (inactive); in assay [2], 44.4 µM (inactive); in assay [3], 22.5 µM (inactive); in assay [4], 35.1 µM (inactive); in [5] it was 26.9 µM (inactive); in [6], 21.9 µM (inactive). The GI50 in assay [7] is 23.2 µM (inactive); in [8] it was 37.2 µM (inactive); in [9], 20 µM (inactive); in assay [10], 46.6 µM (inactive); in assay [11], 46.6 µM (inactive); in [12], 35.1 µM (inactive). Further, the GI50 in [13] is 35.6 µM (inactive); in assay [14], 46.7 µM (inactive); in assay [15] it was 16.9 µM (inactive); in assay [16], 26.2 µM (inactive); in assay [17], 0.731 µM (active); in assay [18], over 10 µM. In addition, in [19], the GI50 was 33.7 µM (inactive).
Turning to `O=C(c1ccccc1)c1c(C(F)(F)F)[n+]([O-])c2ccccc2[n+]1[O-]`, the GI50 was 0.446 µM (active) in assay [1]; 0.188 µM (active) in assay [2]; 0.879 µM (active) in assay [3]; 0.495 µM (active) in [4]; 0.543 µM (active) in assay [5]; 0.469 µM (active) in [6]. In addition, the GI50 in assay [7] was 0.302 µM (active); in assay [8], 2.17 µM (inactive); in assay [9], 3.15 µM (inactive); in assay [10], 1.44 µM (inactive); in [11], 1.73 µM (inactive); in assay [12], 0.129 µM (active). Besides, the GI50 in [13] was 0.476 µM (active); in assay [14] it was 1.64 µM (inactive); in [15] it was 0.687 µM (active); in [16] it was 1.92 µM (inactive); in assay [17] it was 1.83 µM (inactive); in assay [18], 0.785 µM. For the same compound, in assay [19], the GI50 is 0.855 µM (active).
